In ChEMBL document CHEMBL3639247, “Pyrazole compounds as CRTH2 antagonists” (2014):

Molecular target: T1, Prostaglandin D2 receptor 2 (Homo sapiens, UniProt Q9Y5Y4)
T1 sequence (Q9Y5Y4 whole entry): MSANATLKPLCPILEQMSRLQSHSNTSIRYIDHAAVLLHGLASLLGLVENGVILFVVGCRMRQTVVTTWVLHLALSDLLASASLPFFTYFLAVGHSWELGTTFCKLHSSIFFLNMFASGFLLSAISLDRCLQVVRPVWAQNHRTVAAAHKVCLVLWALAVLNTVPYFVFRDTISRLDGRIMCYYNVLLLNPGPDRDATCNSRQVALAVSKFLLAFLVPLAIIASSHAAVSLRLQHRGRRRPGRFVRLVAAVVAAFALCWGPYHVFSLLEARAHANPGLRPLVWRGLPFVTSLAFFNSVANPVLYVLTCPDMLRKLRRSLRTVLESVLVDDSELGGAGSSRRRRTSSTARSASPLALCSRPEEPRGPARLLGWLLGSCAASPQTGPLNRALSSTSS
Assay: Radioligand Binding Assay: The CRTH2 receptor binding assay is performed in a scintillation proximity assay (SPA) format with the radioligand [3H]-PGD2 (Perkin Elmer, NET616000MC). CHO-K1-hCRTH2 cell membranes are again homogenized by passing through a single use needle (Terumo, 23Gx1'') and diluted in SPA incubation buffer in suitable concentrations (0.5-10 ug protein/well). The SPA assay is set up in 96 well microtiter plates (Perkin Elmer, CatNo. 6005040) in SPA incubation buffer with a final volume of 200 ul per well and final concentration of 50 mM Tris-HCl, 10 mM MgCl2, 150 mM NaCl, 1 mM EDTA pH 7.4, 0.1% bovine serum albumin). The SPA assay mixture contains 60 ul of the membrane suspension, 80 ul of Wheat Germ Agglutinin coated PVT beads (GE Healthcare, RPNQ-0001, 0.3 mg/well), 40 ul of [3H]-PGD2 diluted in SPA buffer to a final concentration of 1 nM (50 000 dpm) and 20 ul of the test compound (dissolved in dimethylsulfoxid).

For `CCc1nn(Cc2ccc(NC(=O)C3CCC(C(F)(F)F)CC3)cc2)c(CC)c1CC(=O)O` (stereo unspecified), the Ki was 23.9 nM.
